Target: T1, Adprt2 (Dictyostelium discoideum, UniProt Q8I7C6)
T1 construct: recombinant His-tagged, expressed and purified from bacteria
T1 sequence (Q8I7C6 1-700): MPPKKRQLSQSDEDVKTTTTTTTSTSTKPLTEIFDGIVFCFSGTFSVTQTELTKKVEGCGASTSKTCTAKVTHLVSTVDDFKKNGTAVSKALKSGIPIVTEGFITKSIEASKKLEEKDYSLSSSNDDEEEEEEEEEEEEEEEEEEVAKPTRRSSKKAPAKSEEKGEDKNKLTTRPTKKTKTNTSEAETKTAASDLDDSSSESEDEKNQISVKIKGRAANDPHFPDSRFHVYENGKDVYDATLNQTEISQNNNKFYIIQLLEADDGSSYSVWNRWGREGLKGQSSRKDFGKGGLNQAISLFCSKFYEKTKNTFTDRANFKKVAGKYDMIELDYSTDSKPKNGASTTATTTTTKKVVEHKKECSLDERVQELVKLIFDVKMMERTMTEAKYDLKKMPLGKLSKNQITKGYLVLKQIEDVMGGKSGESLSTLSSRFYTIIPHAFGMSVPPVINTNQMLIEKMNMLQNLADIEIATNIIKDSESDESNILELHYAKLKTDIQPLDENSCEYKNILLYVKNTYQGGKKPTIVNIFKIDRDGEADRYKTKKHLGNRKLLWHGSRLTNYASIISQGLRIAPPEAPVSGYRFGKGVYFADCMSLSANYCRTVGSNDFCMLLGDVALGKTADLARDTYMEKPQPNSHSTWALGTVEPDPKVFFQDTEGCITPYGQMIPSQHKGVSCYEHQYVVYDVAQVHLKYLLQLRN
Assay: auto-ADP-ribosylation, […]-NAD+, SDS-PAGE and phosphorimager
Assay type: biochemical
Details: room temperature

[1] = 75 uM NAD+, 100 nM 32P-NAD+, 1 uM enzyme, Tris-HCl pH 8, 2 mM MgCl2, sheared salmon sperm DNA, 30 min

Structure (SMILES)	auto-ADP-ribosylation, 32P-NAD+, SDS-PAGE and phosphorimager [1]	auto-ADP-ribosylation, 32P-NAD+, SDS-PAGE and phosphorimager (75 uM NAD+ plus 100 nM 32P-NAD+ (labelled compound), pH 8, 2 mM MgCl2, sheared salmon sperm DNA)
O=C(c1cc(Cc2n[nH]c(=O)c3ccccc23)ccc1F)N1CCN(C(=O)C2CC2)CC1 [olaparib]	olaparib and rucaparib are more effective at inhibiting Adprt1a than Adprt2	
NC(=O)c1ccc[n+]([C@@H]2O[C@H](COP(=O)(O)OP(=O)(O)OC[C@H]3O[C@@H](n4cnc5c(N)ncnc54)[C@H](O)[C@@H]3O)[C@@H](O)[C@H]2O)c1 [NAD+]		ADP-ribosylated species that co-migrates with recombinant Adprt1a or Adprt2 in our assays
Cc1nc2c(O)cccc2c(=O)[nH]1 [NU1025]	these agents inhibit auto-ribosylation of the SSB-responsive ART Adprt2	
CNCc1ccc(-c2[nH]c3cc(F)cc4c3c2CCNC4=O)cc1 [rucaparib]	olaparib and rucaparib are more effective at inhibiting Adprt1a than Adprt2	

From article PMC5622368, “Redundancy between nucleases required for homologous recombination promotes PARP inhibitor resistance in the eukaryotic model organism Dictyostelium” (Nucleic Acids Research, 2017)
